Laboratory results published in patent US20080004325A1, “PTP1B inhibitors” (Wyeth, priority 2006, published 2008).

Biological target: T1, catalytic domain of human PTP1b (residues 1-299) (Homo sapiens, UniProt P18031)
T1 construct: catalytic domain of human PTP1b (residues 1-299); made in house; host or cells: E. coli
T1 sequence (P18031 1-299): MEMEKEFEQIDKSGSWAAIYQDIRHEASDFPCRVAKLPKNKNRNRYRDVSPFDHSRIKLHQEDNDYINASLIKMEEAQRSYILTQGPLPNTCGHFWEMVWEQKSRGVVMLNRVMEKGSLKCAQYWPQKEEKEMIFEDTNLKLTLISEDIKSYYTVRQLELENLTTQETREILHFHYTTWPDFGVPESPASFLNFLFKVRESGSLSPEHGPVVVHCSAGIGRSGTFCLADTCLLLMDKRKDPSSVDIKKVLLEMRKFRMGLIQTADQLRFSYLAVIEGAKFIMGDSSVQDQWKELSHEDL
Experiment: PTP1b pNPP hydrolysis inhibition assay
Assay type: biochemical
Settings: pNPP substrate, 25° C., pH 7.0, three fixed inhibitor concentrations; read-out: Ki Micromolar
Description: The p-nitrophenyl phosphate (pNPP) substrate was purchased from Sigma. PTPase activity was measured at room temperature (25° C.) in a 200 ul reaction mixture with various concentrations of substrate. Reactions began with enzyme addition and were quenched after 2-3 minutes with 1N NaOH. Background hydrolysis of pNPP was measured without addition of enzyme. […] All experiments were performed in 50 mM 3,3-dimethylglutarate buffer (pH 7.0), with 10 mM DTT, 1 mM EDTA, and with the ionic strength adjusted to 0.15 M with NaCl. All solutions were prepared in distilled, deionized water. For initial evaluation of each compound, percent inhibition was determined for two concentrations of compound (for example at 200 uM and 20 uM) at a fixed pNPP concentration.
Percent inhibition was determined following background subtraction of the non-enzymatic hydrolysis rate compared to no inhibitor (DMSO only) controls. Inhibition constants and inhibition patterns were evaluated using the direct curve-fitting program GraFit (Erithacus Software Limited).

First: Cc1c(N2CC(=O)NS2(=O)=O)csc1-c1cccc(NC2CC(C)(C)CC(C)(C)C2)c1
Second: Cc1c(N2CC(=O)NS2(=O)=O)csc1-c1cccc([N+](=O)[O-])c1 [5-[4-methyl-5-(3-nitrophenyl)-3-thienyll-1,2,5-thiadiazolidin-3-one 1,1-dioxide]
The Ki of the first is 2.3-fold lower: 15 µM for the first, 34 µM for the second.

Going from `CC1C(=O)NS(=O)(=O)N1c1csc(-c2ccccc2)c1` (stereo not shown) [4-methyl-5-(5-phenyl-3-thienyl)-1,2,5-thiadiazolidin-3-one 1,1-dioxide] to `O=C1CN(c2csc(-c3ccccc3)c2)S(=O)(=O)N1` [5-(5-phenyl-3-thienyl)-1,2,5-thiadiazolidin-3-one 1,1-dioxide], the Ki falls from > 1000 µM to 150 µM.

`O=C1CN(c2csc(-c3cccc(NC4CCCCC4)c3)c2)S(=O)(=O)N1` [5-5-[3-(cyclohexylamino)phenyl]-3-thienyl}-1,2,5-thiadiazolidin-3-one 1,1-dioxide] and `O=C1CN(c2csc(-c3cccc(NC4CCCCC4)c3)c2Cl)S(=O)(=O)N1` [5-{4-chloro-5-[3-(cyclohexylamino)phenyl]-3-thienyl}-1,2,5-thiadiazolidin-3-one 1,1-dioxide] are within 1.5-fold of each other in Ki: 12 µM for the first, 14 µM for the second.

Going from `O=C1CN(c2csc(-c3ccccc3)c2Br)S(=O)(=O)N1` [5-(4-bromo-5-phenyl-3-thienyl)-1,2,5-thiadiazolidin-3-one 1,1-dioxide] to `Cc1c(N2CC(=O)NS2(=O)=O)csc1-c1ccccc1` [5-(4-methyl-5-phenyl-3-thienyl)-1,2,5-thiadiazolidin-3-one 1,1-dioxide], the Ki rises from 18 µM to 41 µM (2.3-fold). The first binds more tightly here.

Going from `Cc1c(N2CC(=O)NS2(=O)=O)csc1-c1cccc(NC2CCN(S(=O)(=O)Cc3ccccc3)CC2)c1` [5-[5-(3-{[1-(benzylsulfonyl)piperidine-4-yl]amino}phenyl)-4-methyl-3-thienyl]-1,2,5-thiadiazolidin-3-one 1,1-dioxide] to `NS(=O)(=O)N(c1cccc(-c2scc(N3CC(=O)NS3(=O)=O)c2Cl)c1)C1CCCCC1` [N-{3-[3-chloro-4-(1,1-dioxido-4-oxo-1,2,5-thiadiazolidin-2-yl)-2-thienyl]phenyl}-N-cyclohexylsulfamide], the Ki falls from 4 µM to 1.7 µM (2.4-fold). The second binds more tightly here.
